Test [1] concerns ACKR3. Kind of test: ACKR3 | EC50 (nM). From the text:
Table printed on a drawing sheet, FIG. 3 (continued) F
Head of the field: ACKR3 | EC50 (nM)
Footnotes: *NH2-substituted at C-terminus
The patent's description of the figure: FIG. 3. Structure-activity relationship analysis of adrenorphin variants on ACKR3 and classical opioid receptors. (A) Comparison of the impact of substitutions, truncations, extensions, D-amino acid replacement or dimerization on the agonist activity of adrenorphin towards ACKR3, MOR, DOR, KOR and NOP. The agonist activity or each variant was evaluated in β-arrestin-1 recruitment assay in U87 cells and expressed as fold change over the activity of wild-type adrenorphin. (B-E) Comparison of potency and efficacy of adrenorphin (B) and its variants bearing mutations Y1F (C), M5L (D) and R6A (E) to induce β-arrestin-1 recruitment to ACKR3 and the opioid receptors KOR, MOR, DOR and NOP in U87 cells. “˜” indicates a similar impact of the modification on the potency of the peptide towards ACKR3 and the indicated opioid receptor. Results represent the mean±S.E.M. (n ? 3) (F) Comparison of the potencies of peptide variants combining mutations Y1F with other modifications (mutations and/or extension) to induce β-arrestin-1 recruitment to ACKR3. Modified amino acids with respect to the mother peptide (Y1F adrenorphin […]) are underlined and in bold.
First copying reader's note: Bold underlined residues in the sequences mark modifications relative to the mother peptide; the pEC50 cells include the SEM after ±.
Where the first naming reader finds the target: head: ACKR3

Test [2] deals with T1, ACKR3 (Homo sapiens, UniProt P25106). The test is classed as cell-based. Also on record: expressed in transfected cells; host or cells: U87 cells, transient co-transfection of pNBe vectors.
Target sequence in this assay (P25106 whole entry): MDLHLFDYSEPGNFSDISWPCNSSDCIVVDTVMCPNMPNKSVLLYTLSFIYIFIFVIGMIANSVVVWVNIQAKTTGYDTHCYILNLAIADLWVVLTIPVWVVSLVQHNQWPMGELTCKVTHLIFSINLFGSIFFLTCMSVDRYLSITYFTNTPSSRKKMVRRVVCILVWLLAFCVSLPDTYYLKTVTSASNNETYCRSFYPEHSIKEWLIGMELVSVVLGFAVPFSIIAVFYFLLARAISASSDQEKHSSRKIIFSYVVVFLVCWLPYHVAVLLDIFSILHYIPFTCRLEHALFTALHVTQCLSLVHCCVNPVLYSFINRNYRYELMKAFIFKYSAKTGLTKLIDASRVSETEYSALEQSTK
Target sequence in this assay (P49407 whole entry partner): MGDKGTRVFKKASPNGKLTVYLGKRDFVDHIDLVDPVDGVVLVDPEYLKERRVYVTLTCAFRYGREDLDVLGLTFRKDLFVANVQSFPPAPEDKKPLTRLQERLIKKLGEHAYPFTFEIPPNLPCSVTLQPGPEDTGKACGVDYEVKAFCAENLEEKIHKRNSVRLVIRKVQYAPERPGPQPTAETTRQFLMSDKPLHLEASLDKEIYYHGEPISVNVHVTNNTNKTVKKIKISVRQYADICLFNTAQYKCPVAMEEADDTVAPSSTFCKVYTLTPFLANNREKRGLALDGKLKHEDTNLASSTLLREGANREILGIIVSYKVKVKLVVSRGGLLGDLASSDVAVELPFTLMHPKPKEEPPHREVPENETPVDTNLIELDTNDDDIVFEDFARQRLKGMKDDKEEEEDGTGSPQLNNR
In test [3] the target is T1, ACKR3. Kind of test: ACKR3-mediated depletion of extracellular dynorphin A monitored by its ability to activate KOR (U87-ACKR3 cells). Type of test: cell-based. Also on record: expressed in transfected cells; for the receptor comparison in the uptake assay, transient pcDNA3.1). The note with it: for reversal of the ACKR3-mediated impairment of dynorphin A potency to activate KOR by pre-treatment: pre-treatment of ACKR3-expressing cells, saturating concentration. As to the method:
(§1) In brief, 1.2×10^6 U87 cells were plated in 10 cm-culture dishes and 48 hours later co-transfected with pNBe vectors encoding GPCRs C-terminally tagged to SmBiT and human β-arrestin-1 or -2 or mini G proteins (mG, engineered GTPase domains of Gα subunits,) N-terminally fused to LgBiT. 48 hours post-transfection cells were harvested, incubated 25 minutes at 37° C. with Nano-Glo Live Cell substrate diluted 200-fold and distributed into white 96-well plates (5×10^4 cells per well). Ligand-induced, β-arrestin and mG recruitment to GPCRs was evaluated with a Mithras LB940 luminometer (Berthold Technologies) for 20 minutes. For concentration-response curves, the signal recorded with a saturating concentration of full agonist for each receptor was set as 100%.
Target sequence in this assay (P25106 whole entry): as the sequence (P25106 whole entry) above

For test [4], the target named is T2, MOR (Homo sapiens, UniProt P35372).
T2 construct: expressed in transfected cells; host or cells: U87 cells, transient co-transfection of pNBe vectors
The test is classed as cell-based. As to the method:
as §1

The target of test [5] is T3, DOR (Homo sapiens, UniProt P41143).
T3 construct: expressed in transfected cells; host or cells: U87 cells, transient co-transfection of pNBe vectors
Nature of the test: β-arrestin-1 recruitment to DOR (NanoBiT, U87 cells). The test is classed as cell-based. As for the experimental part: as §1

The target in test [6] is KOR (Homo sapiens, UniProt P41145). Kind of test: β-arrestin-1 recruitment to KOR (NanoBiT, U87 cells). The test is classed as cell-based. Also on record: expressed in transfected cells; host or cells: U87 cells, transient co-transfection of pNBe vectors. As to the method: as §1
(In general: Activated receptors often draw arrestin, which recruitment assays turn into a signal.)

Test [7] has as its system rat locus coeruleus neurons. Type of test: cell-based. As for the experimental part: 1.9. Ex Vivo Rat Neuron Depolarization
Adult male Wistar rats (6 to 8-week old) were housed at room temperature in groups of three or four with a 12:12 hour light-dark cycle. All animals had access to ad libitum food and water. All procedures were carried out in accordance with guidelines of the European Communities Council Directive of 24 Nov. 1986 (86609EE) and were accepted by the Ethics Committee for Animal Use of the University of Liège (protocol 2061). All efforts were made to minimize animal suffering.
1.9.2. Brain Explant Preparation and Recording Procedures
Rats were anaesthetized with chloral hydrate (400 mg/kg, i.p.) and placed under a cap with oxygenated air (95% O2, 5% CO2) two minutes prior to decapitation. After decapitation, the brain was rapidly removed and placed in ice cold (˜2° C.) oxygenated artificial cerebrospinal fluid (aCSF) of the following composition: NaCl 130 mM, KCl 3.5 mM, NaH2PO4 1.25 mM, NaHCO3 24 mM, Glucose 10 mM, CaCl2 2 mM, MgSO4 1.25 mM. A block of tissue containing the pons was placed in a vibrating blade microtome (Vibratome 1000 Plus, Sectioning System) and a slice containing the locus coeruleus (LC) immediately rostral to the fourth ventricle and the VIIth nerve, used as anatomical landmarks, was cut coronally (400 μm thick). The slice was placed on a nylon mesh in a recording chamber (volume: 0.5 ml) where it was superfused by oxygenated aCSF (34.0±0.5° C.) at a rate of 2 to 3 ml/min. The LC was recognized as a translucent region during transillumination, lateral to the fourth ventricle. All experiments were performed in oxygenated aCSF with synaptic blockers consisting of 10 μM CNQX, 10 μM SR95531, 1 μM MK801, and 1 μM CGP55845, which block AMPA/Kainate, GABAA, NMDA, and GABAB receptors, respectively. This ensured that the spontaneous firing of the neurons was only due to its endogenous pace making.
Extracellular single cell recordings of LC neurons were performed with glass microelectrodes filled with aCSF (resistance 10-20 MΩ). Signals were passed through an impedance adapter and were amplified 1000× using a home-made amplifier. […] Data were collected and analysed with the Spike 2 software (Cambridge Electronic Design). […] The duration of the extracellularly recorded action potentials was 2-3 ms. Drugs and peptides were applied for at least 10 minutes.
The mean firing rate over 1 minute was calculated during each condition. Next, the inhibition of firing by the peptides and drugs used (LIH383 and dynorphin) was quantified as the % of total inhibition. For this purpose, present inventors considered the mean firing rate during the last minute of each condition (control, LIH383 alone, LIH383 plus a given concentration of dynorphin).

The subject of test [8] is smNPCs. Nature of the test: Uptake of labelled dynorphin A (1-13) by smNPCs, imaging flow cytometry. Type of test: cell-based, human. Conditions: 3 μM, 15 minutes pre-treatment. As for the experimental part:
U87 cells derived from human brain glioblastoma were obtained through the NIH AIDS Reagent Program from Dr. Deng and Dr. Littman. U87 stably expressing ACKR3 and CXCR4 were generated as previously described in Szpakowska, M. et al. Different contributions of chemokine N-terminal features attest to a different ligand binding mode and a bias towards activation of ACKR3/CXCR7 compared with CXCR4 and CXCR3. Br J Pharmacol 175, 1419-1438 (2018). U87 cells were grown in Dulbecco's modified Eagle medium (DMEM) supplemented with 15% foetal bovine serum and penicillin/streptomycin (100 Units/ml and 100 μg/ml). U87-ACKR3 and U87-CXCR4 were maintained under puromycin (1 μg/ml) selective pressure. smNPCs (small molecule neural precursor cells) derived from a healthy donor (C1-1) whose informed consent was obtained, were grown on Geltrex™-coated surface in N2B27 medium supplemented with 0.5 μM Purmorphamine, 3 μM CHIR 99021 and 150 μM ascorbic acid. N2B27 medium consisted of DMEM/F12 and NeuroBasal medium 50:50 with 0.5% N2 supplement, 1% B27 supplement lacking vitamin A, 1% GlutaMAX and 1% penicilin/streptomycin. Medium was renewed every other day.
Cells were distributed into 96-well plates (2×10^5 cells/well in Opti-MEM for U87 and U87-ACKR3 and 3×10^5 cells/well in N2B27 medium for smNPCs). […] For comparison of labelled opioid peptide-uptake by ACKR3 or classical opioid receptors, 1.2×10^6 U87 cells were seeded in 10-cm dishes and transfected 48 hours later with 4 μg pcDNA3.1 plasmid encoding ACKR3 or KOR, MOR or NOP. 48 hours post transfection, cells were harvested and treated as described above. Dead cells were excluded using Zombie NIR or Zombie Green viability dye (BioLegend) for FAM-labelled peptides and Cy5-labelled peptides, respectively. Images of 1×10^4 in-focus, living single cells were acquired with an ImageStream MKII imaging flow cytometer (Amnis) using 40× magnification (60× magnification for smNPCs). Samples were analysed using Ideas6.2 software. The number of spots per cell was determined using a mask-based software wizard.
A general note: A flow cytometer gives signals particle by particle.

A word on the EC50: it is the concentration needed to bring the measured effect to its halfway point.

KOR, sequence (P41145 whole entry): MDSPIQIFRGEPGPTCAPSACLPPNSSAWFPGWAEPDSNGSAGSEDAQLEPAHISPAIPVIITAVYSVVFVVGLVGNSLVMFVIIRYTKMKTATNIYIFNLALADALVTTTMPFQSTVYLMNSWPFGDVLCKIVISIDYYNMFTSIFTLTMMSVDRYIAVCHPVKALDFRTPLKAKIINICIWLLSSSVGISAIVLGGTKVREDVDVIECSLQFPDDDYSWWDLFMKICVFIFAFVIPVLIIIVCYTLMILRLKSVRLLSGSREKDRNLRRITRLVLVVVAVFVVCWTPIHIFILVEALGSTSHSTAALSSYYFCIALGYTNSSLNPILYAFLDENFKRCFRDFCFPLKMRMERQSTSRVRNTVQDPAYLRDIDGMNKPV
T3 sequence (P41143 whole entry): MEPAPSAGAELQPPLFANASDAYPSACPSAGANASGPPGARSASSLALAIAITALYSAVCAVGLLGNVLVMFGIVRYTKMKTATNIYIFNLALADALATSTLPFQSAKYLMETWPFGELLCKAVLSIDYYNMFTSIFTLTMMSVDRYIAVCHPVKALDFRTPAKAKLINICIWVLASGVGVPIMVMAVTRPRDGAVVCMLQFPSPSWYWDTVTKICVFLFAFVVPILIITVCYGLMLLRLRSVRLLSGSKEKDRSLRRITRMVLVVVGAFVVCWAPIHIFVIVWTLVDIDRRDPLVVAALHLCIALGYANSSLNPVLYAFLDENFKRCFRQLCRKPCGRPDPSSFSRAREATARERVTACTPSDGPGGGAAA
T2 sequence (P35372 whole entry): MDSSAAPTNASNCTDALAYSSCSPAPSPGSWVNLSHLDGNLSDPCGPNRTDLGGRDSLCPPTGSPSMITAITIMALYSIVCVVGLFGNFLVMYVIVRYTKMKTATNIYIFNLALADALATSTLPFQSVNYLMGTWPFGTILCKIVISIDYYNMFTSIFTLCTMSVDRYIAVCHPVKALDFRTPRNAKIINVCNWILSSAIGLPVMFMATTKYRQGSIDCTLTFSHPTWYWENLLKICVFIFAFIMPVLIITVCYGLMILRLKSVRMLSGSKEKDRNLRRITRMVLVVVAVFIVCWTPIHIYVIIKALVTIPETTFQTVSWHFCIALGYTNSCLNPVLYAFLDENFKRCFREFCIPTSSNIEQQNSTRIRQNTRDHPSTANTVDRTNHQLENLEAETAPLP

Turning to YGGFMRRV* (adrenorphin) [compound 32], in test [1], the midpoint of the response, the EC50, lay at 109 nM.
Molecule FGGWMRRFR (peptide 46) [SEQ ID NO: 71] displayed an EC50 in test [1] of 19.1 nM.
Still for that read-out and setting: next, FGGWMRRKR (peptide 6) [SEQ ID NO: 11]: 7.34 nM; FGGFMRRFR (peptide 45) [SEQ ID NO: 70]: 16.3 nM.
Still for that read-out and setting: next, “FGGFMRRV* (mother peptide) [compound 35]”: 9.33 nM.
Turning to `Oc1ccc2c3c1O[C@H]1c4[nH]c5c(c4C[C@@]4(O)[C@@H](C2)N(CC2CC2)CC[C@]314)C[C@@]1(O)[C@H]2Cc3ccc(O)c4c3[C@@]1(CCN2CC1CC1)[C@H]5O4` [nor-binaltrophimine, reference compound], the “activity of opioid modulators towards ACKR3 in β-arrestin recruitment” value in test [2] (10 μM, 1 μM and 100 nM) is recorded as “Weak activation of ACKR3”.
For FGGWMRRK (peptide 4) [SEQ ID NO: 6], in test [1], the EC50 came to 4.03 nM.
In test [1], FGGFMRRKR (peptide 2) [SEQ ID NO: 4] yielded an EC50 of 1.11 nM.
Regarding “dynorphin 2-13: endogenous truncated dynorphin variant [reference compound]”, the “β-arrestin recruitment to ACKR3: agonist activity/potency in words” value in test [2] (U87 cells) is “activated”.
In turn, FGGFMRRF (peptide 44) [SEQ ID NO: 69] yielded an EC50 in test [1] of 11 nM.
Consider “CXCL10: irrelevant (negative control) chemokine”, for which the “reversal of the ACKR3-mediated impairment of dynorphin A potency to activate KOR by pre-treatment” value in test [3] was “not”.
Regarding FGGFMRRV [adrenorphin Y1F variant], the “reduction of potency towards MOR as compared to WT adrenorphin” value in test [4] was “over 100 fold”. In addition, in test [5], the “reduction of potency towards DOR as compared to WT adrenorphin” value was “over 100 fold”. In addition, the “impact of adrenorphin modification on activity towards ACKR3 (versus adrenorphin), in words” value in test [2] (β-arrestin-1 recruitment, U87 cells) was “tenfold improvement in potency”. In test [6], the “reduction of potency towards KOR as compared to WT adrenorphin” value was “over 100 fold”.
Consider `C=CCN1CC[C@]23c4c5ccc(O)c4O[C@H]2C(=O)CC[C@@]3(O)[C@H]1C5` [naloxone], for which the “effect of dynorphin A (1 μM) on neuronal firing rate after naloxone pretreatment” value in test [7] is reported as “did not lead to a change in neuronal firing rate”.
Take FGGFMRRVR (peptide 3) [SEQ ID NO: 5]: the EC50 in test [1] was determined as 3.97 nM.
For “CXCL11: C—X—C motif chemokine 11, endogenous ACKR3 chemokine ligand”, the EC50 in test [2] (U87 cells, read-out: EC50 in inducing β-arrestin recruitment to ACKR3) is 2.2 nM.
On to “dynorphin 2-17: endogenous truncated dynorphin variant (GGFLRRIRPKLKWDNQ; listed as Homo sapiens) [reference compound]”, for which, in test [2] (U87 cells), the “β-arrestin recruitment to ACKR3: agonist activity/potency in words” value is reported as “activated”.
The molecule FGGWMRRVR (peptide 5) [SEQ ID NO: 10] gave an EC50 in test [1] of 5.42 nM.
Regarding `CC[C@H](C)[C@H](NC(=O)[C@H](CCCNC(=N)N)NC(=O)[C@H](CCCNC(=N)N)NC(=O)[C@H](CC(C)C)NC(=O)[C@H](Cc1ccccc1)NC(=O)CNC(=O)CNC(=O)[C@@H](N)Cc1ccc(O)cc1)C(=O)N[C@@H](CCCNC(=N)N)C(=O)N1CCC[C@H]1C(=O)N[C@@H](CCCCN)C(=O)N[C@@H](CC(C)C)C(=O)N[C@@H](CCCCN)C(=O)N[C@@H](Cc1c[nH]c2ccccc12)C(=O)N[C@@H](CC(=O)O)C(=O)N[C@@H](CC(N)=O)C(=O)N[C@@H](CCC(N)=O)C(=O)O` [dynorphin A], in test [7] (LIH383 3 μM group, read-out: EC50 of dynorphin for inhibition of firing, one aberrant individual value that was omitted), the EC50 was determined as 559 nM. Moreover, in test [7] (explants of rat locus coeruleus), the “concentration giving total inhibition of neuron depolarization (neuronal firing)” value came out at 1 µM. Besides, in test [3], the “apparent potency to activate KOR in the presence of ACKR3-expressing cells” value was “impaired”.
FGGWMRRV (peptide 43) [SEQ ID NO: 68]: in test [1], the EC50 amounted to 10.5 nM.
On to “MRRKFGGF [LIH383 ctrl, control peptide consisting of the 8 amino acids building LIH383 in a different arrangement, reference compound]”, for which the “effect of pretreatment on uptake of labelled dynorphin A (1-13) by smNPCs” value in test [8] is listed as “not”. The “reversal of the ACKR3-mediated impairment of dynorphin A potency to activate KOR by pre-treatment” value in test [3] was “not”.
Take FGGWMRRF (peptide 47) [SEQ ID NO: 72]: a half-maximal response in test [1] (EC50) required 19.1 nM.

The record behind these values is US12578343B2, “Selective ACKR3 modulators and uses thereof” (Luxembourg Institute of Health (LIH), priority 2019, dated 2026).
